Patent US20240238295A1, “METHOD FOR MODULATING NEUROPATHIES” (priority 2021, published 2024)
Where “and” joins values, the source holds several entries; their conditions need not be identical. Identical values can stand only once.

Legend:
Format in all cases: in vivo, rhesus monkey (Macaca mulatta)
[1] = test system: retinal ischemia/reperfusion (I/R) rhesus monkey model; assay: OCT mean thickness of 9-room retinal EDTRS area, retinal I/R model; details: change vs before modeling; also: test concentration or dose not given here
[2] = test system: retinal ganglion cells (RGC); assay: Brn3a immunohistochemistry retinal ganglion cell count, retinal ischemia/reperfusion (I/R) model; details: for average loss of RGC cells: I/R eyes vs contralateral OS eye, Day 63 after retinal I/R, oral 63 days; for protection on retinal ganglion cells: retinal I/R, 63 days of treatment; as to average loss of RGC cells: test concentration or dose not given here
[3] = test system: retinal ischemia/reperfusion (I/R) rhesus monkey model; assay: OCT Global mean thickness of retinal nerve fiber layer (RNFL), retinal I/R model; details: change vs before modeling; also: test concentration or dose not given here
[4] = test system: sural nerve of rhesus monkeys with spontaneous diabetic peripheral neuropathy; assay: Nerve electromyogram: sural sensory nerve conduction velocity, spontaneous DPN model; details: for Change value, sural sensory nerve conduction velocity, Mean ± SD / D58 of administration, sural sensory nerve conduction velocity, Mean ± SD / Baseline value, sural sensory nerve conduction velocity, Mean ± SD: group mean over abnormal sural nerves; for Change value, sural sensory nerve conduction velocity, Mean ± SD / Change value, sural sensory nerve conduction velocity: D58 minus baseline; for D58 of administration, sural sensory nerve conduction velocity, Mean ± SD / D58 of administration, sural sensory nerve conduction velocity: Day 58 of administration; for Baseline value, sural sensory nerve conduction velocity, Mean ± SD: before administration; for Change value, sural sensory nerve conduction velocity / D58 of administration, sural sensory nerve conduction velocity: individual animal; as to Change value, sural sensory nerve conduction velocity, Mean ± SD: test concentration or dose not given here; as to Change value, sural sensory nerve conduction velocity: test concentration or dose not given here; as to D58 of administration, sural sensory nerve conduction velocity, Mean ± SD: test concentration or dose not given here; as to D58 of administration, sural sensory nerve conduction velocity: test concentration or dose not given here
[5] = test system: rhesus monkeys with spontaneous diabetic peripheral neuropathy; assay: Nerve electromyogram: sensory nerve conduction velocity (SCV) of abnormal nerves, spontaneous DPN model; details: for Variation value, sensory nerve conduction velocity, Mean ± SD / Administration D58, sensory nerve conduction velocity, Mean ± SD / Baseline value, sensory nerve conduction velocity, Mean ± SD: group mean over all abnormal nerves; for Variation value, sensory nerve conduction velocity, Mean ± SD / Variation value, sensory nerve conduction velocity: D58 minus baseline; for Administration D58, sensory nerve conduction velocity, Mean ± SD / Administration D58, sensory nerve conduction velocity: Day 58 of administration; for Baseline value, sensory nerve conduction velocity, Mean ± SD / Baseline value, sensory nerve conduction velocity: before administration; for Variation value, sensory nerve conduction velocity / Administration D58, sensory nerve conduction velocity / Baseline value, sensory nerve conduction velocity: individual animal; as to Administration D58, sensory nerve conduction velocity, Mean ± SD: test concentration or dose not given here; as to Administration D58, sensory nerve conduction velocity: test concentration or dose not given here; as to Variation value, sensory nerve conduction velocity, Mean ± SD: test concentration or dose not given here; as to Variation value, sensory nerve conduction velocity: test concentration or dose not given here
[6] = OS (non-ischemic contralateral eye), Day 7
[7] = OS (non-ischemic contralateral eye), Day 21
[8] = OS (non-ischemic contralateral eye), Day 35
[9] = OS (non-ischemic contralateral eye), Day 63
[10] = spontaneous DPN, 58 days, P>0.05 vs placebo group

In the case of `COc1cc2nc(N3CCN(C(=O)C4COc5ccccc5O4)CC3)nc(N)c2cc1OC` (racemic) [DOX, (RS)-2-[4-(2,3-Dihydro-1,4-benzodioxine-2-carbonyl)piperazin-1-yl]-6,7-dimethoxyquinazolin-4-amine], the “Δ mean thickness of the 9-room retinal EDTRS area” value (“Δ mean thickness” for short) ([1]; OD (IR injury), Day 7) is reported as −26 ± 0 μm, the “Δ mean thickness” value ([1]; OD (IR injury), Day 21) is reported as −48 ± 7 μm and the “Δ mean thickness” value ([1]; OD (IR injury), Day 35) is reported as −54 ± 10 μm. The “Δ mean thickness” value ([1]; OD (IR injury), Day 63) was −58 ± 9 μm, the “Δ mean thickness” value [1, 6] was −5 ± 4 μm and the “Δ mean thickness” value [1, 7] was −3 ± 4 μm. For the same molecule, the “Δ mean thickness” value [1, 8] was −3 ± 3 μm, the “Δ mean thickness” value [1, 9] was −3 ± 5 μm and the “average loss of RGC cells” value [2] was 63.9±14.1%. For the same molecule, the “protection on retinal ganglion cells” value [2] was “weak protection”, the “Δ Global mean thickness of retinal nerve fiber layer (RNFL)” value (“Δ Global mean thickness” for short) ([3]; OD (I/R injury), Day 35) was −14 ± 4 μm and the “Δ Global mean thickness” value ([3]; OD (I/R injury), Day 63) was −21 ± 7 μm. For the same molecule, the “Δ Global mean thickness” value [3, 8] was 1 ± 2 μm and the “Δ Global mean thickness” value [3, 9] was 1 ± 1 μm.
For `CC(/C=C1\SC(=S)N(CC(=O)O)C1=O)=C\c1ccccc1` [Epalrestat, epalrestat], the “Change value, sural sensory nerve conduction velocity, Mean ± SD” value [4] was 3.2 ± 3.9 m/s, the “D58 of administration, sural sensory nerve conduction velocity, Mean ± SD” value [4] was 42.1 ± 2.1 m/s and the “Baseline value, sural sensory nerve conduction velocity, Mean ± SD” value [4] was 38.9 ± 3.2 m/s. The “Change value, sural sensory nerve conduction velocity” value ([4]; left sural nerve (abnormal)) was 6.1 m/s and −1.1 m/s and 5.6 m/s, the “D58 of administration, sural sensory nerve conduction velocity” value ([4]; left sural nerve (abnormal)) was 41.4 m/s and 39.3 m/s and 45.2 m/s and the “Change value, sural sensory nerve conduction velocity” value ([4]; right sural nerve (abnormal)) was 9.3 m/s and 0.4 m/s and 2.8 m/s and −0.6 m/s. The “D58 of administration, sural sensory nerve conduction velocity” value ([4]; right sural nerve (abnormal)) was 43.9 m/s and 41.3 m/s and 39.6 m/s and 43.8 m/s, the “average increase in sensory nerve conduction velocity (SCV) of abnormal sural nerves vs baseline” value ([4]; spontaneous DPN, 58 days of administration) was 3.2±3.9 m/s and the “nerves determined to be effectively improved in conduction velocity (of abnormal sural nerves)” value ([4]; spontaneous DPN, 58 days, effective = return to normal or increase by 2-5 m/s or more) was 4/7. The “Variation value, sensory nerve conduction velocity, Mean ± SD” value [5] was 4.2 ± 4.0 m/s, the “Administration D58, sensory nerve conduction velocity, Mean ± SD” value [5] was 43.6 ± 7.3 m/s and the “Baseline value, sensory nerve conduction velocity, Mean ± SD” value [5] was 38.8 ± 4.7 m/s. For the same molecule, the “Variation value, sensory nerve conduction velocity” value ([5]; left median nerve (abnormal)) was 1.5 m/s and 8.6 m/s, the “Administration D58, sensory nerve conduction velocity” value ([5]; left median nerve (abnormal)) was 40 m/s and 51.2 m/s and the “Baseline value, sensory nerve conduction velocity” value ([5]; left median nerve (abnormal)) was 38.5 m/s and 42.6 m/s. For the same molecule, the “Variation value, sensory nerve conduction velocity” value ([5]; left sural nerve (abnormal)) was −1.1 m/s and 5.6 m/s and 6.1 m/s, the “Baseline value, sensory nerve conduction velocity” value ([5]; left sural nerve (abnormal)) was 40.4 m/s and 39.6 m/s and 35.3 m/s and the “Variation value, sensory nerve conduction velocity” value ([5]; left ulnar nerve (abnormal)) was 8.3 m/s. For the same molecule, the “Administration D58, sensory nerve conduction velocity” value ([5]; left ulnar nerve (abnormal)) was 50.7 m/s, the “Baseline value, sensory nerve conduction velocity” value ([5]; left ulnar nerve (abnormal)) was 42.4 m/s and the “Variation value, sensory nerve conduction velocity” value ([5]; right median nerve (abnormal)) was −0.7 m/s and 4.8 m/s. The “Administration D58, sensory nerve conduction velocity” value ([5]; right median nerve (abnormal)) was 25.1 m/s and 48.2 m/s, the “Baseline value, sensory nerve conduction velocity” value ([5]; right median nerve (abnormal)) was 25.8 m/s and 43.4 m/s and the “Variation value, sensory nerve conduction velocity” value ([5]; right sural nerve (abnormal)) was 0.4 m/s and 2.8 m/s and −0.6 m/s and 9.3 m/s. For the same molecule, the “Baseline value, sensory nerve conduction velocity” value ([5]; right sural nerve (abnormal)) was 40.9 m/s and 36.8 m/s and 44.4 m/s and 34.6 m/s, the “Variation value, sensory nerve conduction velocity” value ([5]; right ulnar nerve (abnormal)) was 9.2 m/s and the “Administration D58, sensory nerve conduction velocity” value ([5]; right ulnar nerve (abnormal)) was 48.4 m/s. The “Baseline value, sensory nerve conduction velocity” value ([5]; right ulnar nerve (abnormal)) was 39.2 m/s and the “mean increase in SCV of nerves with abnormal conduction velocities vs baseline” value ([5]; spontaneous DPN, administered for 58 days) was 4.2±4.0 m/s.
For `CCCN[C@H]1CCc2nc(N)sc2C1` [PMP, (S)—N6-propyl-4,5,6,7-tetrahydro-1,3-benzothiazole-2,6-diamine], the “Δ mean thickness” value ([1]; OD (IR injury), Day 7) was −50 ± 14 μm, the “Δ mean thickness” value ([1]; OD (IR injury), Day 21) was −79 ± 15 μm and the “Δ mean thickness” value ([1]; OD (IR injury), Day 35) was −85 ± 14 μm. The “Δ mean thickness” value ([1]; OD (IR injury), Day 63) was −88 ± 18 μm, the “Δ mean thickness” value [1, 6] was −3 ± 5 μm and the “Δ mean thickness” value [1, 7] was −6 ± 3 μm. The “Δ mean thickness” value [1, 8] was −2 ± 4 μm, the “Δ mean thickness” value [1, 9] was 3 ± 3 μm and the “Change value, sural sensory nerve conduction velocity, Mean ± SD” value [4] was 0.9 ± 1.1 m/s. The “D58 of administration, sural sensory nerve conduction velocity, Mean ± SD” value [4] was 40.8 ± 1.0 m/s, the “Baseline value, sural sensory nerve conduction velocity, Mean ± SD” value [4] was 39.8 ± 1.0 m/s and the “Change value, sural sensory nerve conduction velocity” value ([4]; left sural nerve (abnormal)) was −0.3 m/s and 1.9 m/s. For the same molecule, the “D58 of administration, sural sensory nerve conduction velocity” value ([4]; left sural nerve (abnormal)) was 40.2 m/s and 40.4 m/s, the “Change value, sural sensory nerve conduction velocity” value ([4]; right sural nerve (abnormal)) was −0.4 m/s and 2.1 m/s and 1.4 m/s and the “D58 of administration, sural sensory nerve conduction velocity” value ([4]; right sural nerve (abnormal)) was 39.6 m/s and 41.1 m/s and 42.6 m/s. The “improvement in abnormal sural sensory nerve conduction velocity compared with the placebo group” value [4, 10] was “no significant improvement”, the “average loss of RGC cells” value [2] was 60.0% and the “protection on retinal ganglion cells” value [2] was “weak protection”. The “Variation value, sensory nerve conduction velocity, Mean ± SD” value [5] was 0.4 ± 1.3 m/s, the “Administration D58, sensory nerve conduction velocity, Mean ± SD” value [5] was 39.0 ± 5.1 m/s and the “Baseline value, sensory nerve conduction velocity, Mean ± SD” value [5] was 38.6 ± 4.9 m/s. The “Variation value, sensory nerve conduction velocity” value ([5]; left median nerve (abnormal)) was −1.9 m/s and 0.8 m/s, the “Administration D58, sensory nerve conduction velocity” value ([5]; left median nerve (abnormal)) was 42.1 m/s and 40.0 m/s and the “Baseline value, sensory nerve conduction velocity” value ([5]; left median nerve (abnormal)) was 44.0 m/s and 39.2 m/s. For the same molecule, the “Variation value, sensory nerve conduction velocity” value ([5]; left sural nerve (abnormal)) was −0.3 m/s and 1.9 m/s, the “Baseline value, sensory nerve conduction velocity” value ([5]; left sural nerve (abnormal)) was 40.5 m/s and 38.5 m/s and the “Variation value, sensory nerve conduction velocity” value ([5]; right median nerve (abnormal)) was −0.6 m/s. For the same molecule, the “Administration D58, sensory nerve conduction velocity” value ([5]; right median nerve (abnormal)) was 25.6 m/s, the “Baseline value, sensory nerve conduction velocity” value ([5]; right median nerve (abnormal)) was 26.2 m/s and the “Variation value, sensory nerve conduction velocity” value ([5]; right sural nerve (abnormal)) was −0.4 m/s and 2.1 m/s and 1.4 m/s. The “Baseline value, sensory nerve conduction velocity” value ([5]; right sural nerve (abnormal)) was 40.0 m/s and 39.0 m/s and 41.2 m/s, the “improvement in abnormal sensory nerve conduction velocity compared with the placebo group” value [5, 10] was “no significant improvement” and the “Δ Global mean thickness” value ([3]; OD (I/R injury), Day 35) was −41 ± 8 μm. For the same molecule, the “Δ Global mean thickness” value ([3]; OD (I/R injury), Day 63) was −46 ± 3 μm, the “Δ Global mean thickness” value [3, 8] was −2 ± 1 μm and the “Δ Global mean thickness” value [3, 9] was 2 ± 1 μm.
